Results: patent US20050003367A1, “Methods and compositions for rapid development of screening assays” (priority 2002, published 2005)
“Also recorded” adds a separate entry of the source. Values belong to the compound of their own block, whether it stands above or below them.

Legend:
MC4R = target: T1, MC4R (Homo sapiens, UniProt P32245); assay: MC4R CRE β-lactamase reporter assay in HEK 293 (P3D8) MC4 cell lines; format: cell-based; conditions: cells pretreated with the MC4 antagonist
T1 construct: endogenous in cells; host or cells: HEK 293 P3D8 (4XCRE-β-lactamase reporter) clones, e.g. MC4.49
Protocol: (§1) Unless otherwise noted, β-lactamase reporter expression was determined by plating cells into 96 well plates at approx. 10^5 cells/well, and loading with 1 μM CCF2-AM in Hanks' balanced salt solution (HBSS) containing phenol red at 22 ° C. for a period between 1 and 2 h. For visual determination, an epifluorescence microscope (Zeiss 25CFL) equipped with a 10× Fluor objective was used. The filter set contained a 405/20 exciter, a 420 dichroic mirror, and a 435 long-pass filter (Chroma Technologies, Brattleboro Vt.). Fluorescence was then quantified on a Cytofluor 4000 fluorescence plate reader using 395/12.5 nm excitation and emission was detected via 460/50 (blue) and 535/40 (green) band pass filters. Emission intensities from blank wells containing no cells were subtracted from wells containing cells. Calibration of β-lactamase enzyme levels were determined in cell lysates as described by Zlokarnik et al.(1998) Science 279 84-88. Replicate samples of cells were lysed by three cycles of freeze thawing in PBS. β-Lactamase activity in the lysate was measured from the rate of hydrolysis of 1 nmol of CCF2 in 100 μl in a Cytofluor fluorimeter. […]
Three out of the eight characterized MC4 cell lines were chosen for further pharmacological characterization that included a dose response curve with NDP-α-MSH. […] The calculated values were consistent with published data. […]

[1] = target: T2, Vanilloid Receptor-1 (VR1) (Homo sapiens, UniProt Q8NER1); assay: VR1 calcium response assay in HEK-293 clones (VIPRII, 96-well); format: cell-based; conditions: for IC50: responses to 10 μM capsaicin, capsazepine 0.01-100 μM
T2 construct: endogenous in cells; host or cells: HEK-293 clones 5B11 and 5B5

[2] = cited from earlier work
PPARγ = target: T3, PPARγ (Homo sapiens, UniProt P37231); assay: PPARγ Gal4-DBD UAS β-lactamase reporter assay, HEK293 clone 4G5; format: cell-based; conditions: 10 μM or 32 μM BADGE 1 h at 37° C. before rosiglitazone 1 nM-10 μM
T3 construct: expressed in transfected cells; host or cells: HEK293 7xUAS-β-lactamase line (HEKUASBLA), clone 4G5; The targeting vector was integrated by homologous recombination
T3 sequence (P37231 238-503 limits assumed): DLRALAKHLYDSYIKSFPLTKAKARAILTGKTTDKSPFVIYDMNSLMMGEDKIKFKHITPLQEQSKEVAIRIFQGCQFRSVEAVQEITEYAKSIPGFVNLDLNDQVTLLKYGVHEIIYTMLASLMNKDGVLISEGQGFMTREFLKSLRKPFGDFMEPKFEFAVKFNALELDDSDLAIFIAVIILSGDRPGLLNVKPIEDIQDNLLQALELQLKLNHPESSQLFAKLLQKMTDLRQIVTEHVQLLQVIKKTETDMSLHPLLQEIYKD
Protocol: as §1
Single cells were sorted into 96 well plates and expanded. […] At least 16 h before the assay, cell clones on one copy of the assay plates were stimulated as described above. β-lactamase activity was detected in individual clones as described in Example 6. […]

[3] = target: T4, Mineralocorticoid receptor (MR) (Homo sapiens, UniProt P08235); assay: MR Gal4-DBD UAS β-lactamase reporter assay, HEK/UAS/GAL4-MR clone 1B4; format: cell-based
T4 construct: expressed in transfected cells; host or cells: HEK293 7xUAS-β-lactamase line (HEKUASBLA), clone 1B4. pKI-Gal4-DBD-MR was integrated by homologous recombination
T4 sequence (P08235 726-964 limits assumed): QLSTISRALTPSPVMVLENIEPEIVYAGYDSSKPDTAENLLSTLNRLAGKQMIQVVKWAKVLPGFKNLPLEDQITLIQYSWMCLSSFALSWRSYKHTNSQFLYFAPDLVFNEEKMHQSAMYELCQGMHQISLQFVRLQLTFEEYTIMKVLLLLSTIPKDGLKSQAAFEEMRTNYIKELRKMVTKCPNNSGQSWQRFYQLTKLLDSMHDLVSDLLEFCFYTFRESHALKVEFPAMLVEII

T2 sequence (Q8NER1 whole entry): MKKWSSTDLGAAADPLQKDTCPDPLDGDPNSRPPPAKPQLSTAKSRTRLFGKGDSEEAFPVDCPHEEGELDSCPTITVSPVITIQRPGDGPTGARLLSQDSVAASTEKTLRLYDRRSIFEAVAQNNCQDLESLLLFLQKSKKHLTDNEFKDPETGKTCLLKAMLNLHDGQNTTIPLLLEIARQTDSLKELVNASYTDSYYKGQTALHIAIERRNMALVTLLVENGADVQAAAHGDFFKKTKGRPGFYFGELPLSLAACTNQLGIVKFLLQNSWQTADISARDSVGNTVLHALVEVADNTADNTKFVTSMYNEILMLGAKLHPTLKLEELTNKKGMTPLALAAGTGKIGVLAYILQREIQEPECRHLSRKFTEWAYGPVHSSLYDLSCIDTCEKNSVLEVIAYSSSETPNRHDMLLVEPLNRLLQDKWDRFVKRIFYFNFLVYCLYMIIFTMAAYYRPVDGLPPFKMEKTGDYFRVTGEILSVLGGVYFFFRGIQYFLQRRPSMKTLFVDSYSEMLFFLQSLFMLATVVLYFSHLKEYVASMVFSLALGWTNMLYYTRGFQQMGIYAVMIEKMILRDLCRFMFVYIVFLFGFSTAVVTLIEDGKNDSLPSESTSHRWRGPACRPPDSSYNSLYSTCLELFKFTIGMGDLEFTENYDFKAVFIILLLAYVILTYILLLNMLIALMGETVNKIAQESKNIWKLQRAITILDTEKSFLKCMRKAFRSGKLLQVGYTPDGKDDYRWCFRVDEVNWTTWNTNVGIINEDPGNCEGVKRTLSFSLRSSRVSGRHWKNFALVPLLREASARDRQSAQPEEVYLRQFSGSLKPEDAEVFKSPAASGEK
T1 sequence (P32245 whole entry): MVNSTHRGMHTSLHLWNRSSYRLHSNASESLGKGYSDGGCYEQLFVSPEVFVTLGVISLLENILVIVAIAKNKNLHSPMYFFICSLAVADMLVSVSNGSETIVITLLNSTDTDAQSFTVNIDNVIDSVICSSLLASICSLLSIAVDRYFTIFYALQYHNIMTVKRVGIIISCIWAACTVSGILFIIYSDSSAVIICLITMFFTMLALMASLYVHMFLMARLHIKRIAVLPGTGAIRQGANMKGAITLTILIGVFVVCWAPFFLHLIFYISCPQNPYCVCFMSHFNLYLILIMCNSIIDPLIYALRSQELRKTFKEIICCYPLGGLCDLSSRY

Compound: HS024
inhibition of the response to α-MSH or NDP-α-MSH (MC4R): inhibited in a concentration-dependant manner

IC50 ([1]; clone 5B5): 7.1 µM | IC50 ([1]; clone 5B11): 12.8 µM
Compound: Oc1cc2c(cc1O)CN(C(=S)NCCc1ccc(Cl)cc1)CCC2 [capsazepine]
effect on VR1 responses to capsaicin ([1]; 50 μM capsazepine, clones 5B11 and 5B5): failed to respond to any concentration of capsaicin; also recorded: inhibited

Compound: C=C(C)[C@]12C[C@@H](C)[C@@]34O[C@](Cc5ccccc5)(O[C@@H]1[C@@H]3C=C(COC(=O)Cc1ccc(O)c(OC)c1)C[C@]1(O)C(=O)C(C)=C[C@@H]41)O2 [resiniferatoxin]
EC50 [1]: 0.427 µM

Compound: SNARF-4F carboxylic acid
pKa [2]: ~6.4

Compound: CC(C)(c1ccc(OCC2CO2)cc1)c1ccc(OCC2CO2)cc1 (centres unmarked) [BADGE]
inhibition of cell response to rosiglitazone (PPARγ): Inhibition of the cell response to the stimuli

EC50 [3]: 0.004 µM
Compound: C[C@]12CCC(=O)C=C1CC[C@@H]1[C@@H]2[C@@H](O)C[C@@]2(C)[C@H]1CC[C@]2(O)C(=O)CO [Cortisol]
